Data on 27 sequences can be found in patent publication US11421006B2, “T cell epitopes from Cockroach and methods of making and using same” (LA JOLLA INSTITUTE FOR ALLERGY AND IMMUNOLOGY, priority 2012, dated 2022).

Several values for one entry are separate records, joined by “and”; a condition that tells them apart may be missing. Equal entries are not always repeated.

For the assay, the system named is Bla g-specific T cells (PBMC). The experiment in a line: ELISPOT assays: IL-5, IFN-γ and IL-10 production by in vitro expanded PBMC of Cockroach-allergic donors. It counts as cell-based, human. Particulars: for IFNγ / IL-5: individual peptide, one line per responding donor; for Total SFCs: IL-5 plus IFN-γ, summed over responding donors; for Cumulative Response: cumulative over regions ranked by total SFCs; for Donors Responding: number of allergic donors (34 tested) with T cell response to the region; for % Total Response: share of total Bla g specific response; for POST-SIT IFNg / POST-SIT IL-5 / POST-SIT IL-10: 6 months after initiation of SIT; for PRE-SIT IL-5 / PRE-SIT IL-10 / PRE-SIT IFNg: before SIT; for PRE-SIT IFNg: one line per donor/peptide. The method, then:
In vitro expansion of Bla g-specific T cells: PBMC were cultured in RPMI 1640 (V Scientific, Tarzana, Calif.) supplemented with 5% human serum (Cellgro, Herndon, Va.) at a density of 2×10^6 cells/ml in 24-well plates (BD Biosciences, San Jose, Calif.) and stimulated with 25 μg/ml German Cockroach (Blatella germanica; Bla g) extract (Greer, Lenoir, N.C.), or individual peptides. […] On day 14, cells were harvested and screened for reactivity against Bla g-specific peptide pools or individual peptides. ELISPOT assays: The production of IL-5, IFN-γ, and IL-10 was analyzed in ELISPOT assays. […] Cells were then incubated at a density of 1×10^5/well either with peptide pools or individual peptides (10 μg/ml), German Cockroach extract (25 μg/ml), PHA (10 μg/ml), or medium (containing 1% DMSO corresponding to the percentage of DMSO in the pools/peptides) as a control. […] Louis, Mo.). Spots were counted by computer-assisted image analysis (Zeiss, KS-ELISPOT reader, Munich, Germany). Each assay was performed in triplicate. The level of statistical significance was determined with a Student's t-test using the mean of triplicate values of the response against relevant pools or individual peptides versus the response against the DMSO control.

In the case of “PEFQSIVQTLNAMPE (listed as Blattella germanica)”, the IFNγ was determined as 87 SFC and the IL-5 is recorded as 0 SFC.

As to “FETIVVTVDSLPEFK (listed as Blattella germanica) [Region 1, Bla g 1 position 351]”, the “Total SFCs” value was 167 SFCs, the “Cumulative Response” value turned out to be 98.5%, the IFNγ worked out at 167 SFC and the IL-5 came to 0 SFC. Moreover, the “Donors Responding” value worked out at 1 and the “% Total Response” value is 0.7%.

In the case of “HFFIGDFFVDHYYSE (listed as Blattella germanica) [Region 9, Bla g 2 position 321]”, the “Total SFCs” value is given as 250 SFCs, the “Cumulative Response” value is on record as 96.8%, the IFNγ is 250 SFC and the IL-5 came to 0 SFC. Further, the “Donors Responding” value worked out at 1 and the “% Total Response” value is 1.0%.

As to “ALREKVLGLPAIKAW (listed as Blattella germanica)”, the IFNγ was 843 SFC and 100 SFC and 0 SFC and 183 SFC and 147 SFC and 1690 SFC; the IL-5 is 0 SFC (3×) and 267 SFC and 380 SFC and 1087 SFC.

Consider “GYITTNVLREILKEL (listed as Blattella germanica) [Region 25]”, for which the “POST-SIT IFNg” value is on record as 0 SFC/10^6, the “POST-SIT IL-5” value was 0 SFC/10^6, the “POST-SIT IL-10” value came to 0 SFC/10^6 and the “Total SFCs” value is recorded as 50 SFCs. For the same sequence, the “PRE-SIT IL-5” value is on record as 50 SFC/10^6, the “PRE-SIT IL-10” value worked out at 0 SFC/10^6, the “PRE-SIT IFNg” value is listed as 0 SFC/10^6 and the “Cumulative Response” value was determined as 100.0%. Besides, the IFNγ was determined as 0 SFC, the IL-5 came out at 50 SFC, the “Donors Responding” value stood at 1 and the “% Total Response” value worked out at 0.2%.

Regarding “EQISVLRKAFDAFDR (listed as Blattella germanica)”, the IFNγ came to 0 SFC and the IL-5 was 340 SFC.

As for “ISSQYYIQQNGNLCY (listed as Blattella germanica) [Region 8, Bla g 2 position 296]”, the “Total SFCs” value is 153 SFCs, the “Cumulative Response” value worked out at 99.1%, the IFNγ is listed as 153 SFC and the IL-5 stood at 0 SFC. Also, the “Donors Responding” value worked out at 1 and the “% Total Response” value came out at 0.6%.

“SMPFGKTPVLEIDGK (listed as Blattella germanica) [Region 11, Bla g 5 position 46]”: the “Total SFCs” value is 874 SFCs; the “Cumulative Response” value amounted to 83.4%; the IFNγ is 57 SFC and 250 SFC; the IL-5 was 0 SFC and 567 SFC. The “Donors Responding” value was found to be 2 and the “% Total Response” value is listed as 3.6%.

On to “GNQNFLTVFDSTSCN (listed as Blattella germanica) [Region 7, Bla g 2 position 46]”, for which the “T cell response pattern (IL-5 / IFN-γ), in words” value is reported as “only associated with IFN-γ production”; the “Total SFCs” value worked out at 55 SFCs; the “Cumulative Response” value worked out at 99.6%; the IFNγ turned out to be 55 SFC. Besides, the IL-5 is listed as 0 SFC, the “Donors Responding” value was 1 and the “% Total Response” value was 0.2%.

As to “SGTVDFDEFMEMMTG (listed as Blattella germanica) [Region 22, Bla g 6 position 140]”, the “Total SFCs” value is listed as 57 SFCs, the “Cumulative Response” value was 99.4%, the IFNγ was determined as 0 SFC and the IL-5 is recorded as 57 SFC. In addition, the “Donors Responding” value was found to be 1 and the “% Total Response” value is listed as 0.2%.

“MVGTILEMLGTRLDQ (listed as Blattella germanica)” came in with an IFNγ of 0 SFC and an IL-5 of 267 SFC.

“FLLSYGEKDFEDYRF (listed as Blattella germanica)”: the IFNγ was 0 SFC (2×) and 77 SFC and 127 SFC; the IL-5 is 1537 SFC and 0 SFC and 203 SFC and 193 SFC.

As for “PEQIQLLKKAFDAFD (listed as Blattella germanica) [Region 23, Bla g 6 position 6]”, the “T cell response pattern (IL-5 / IFN-γ), in words” value is given as “only IL-5 production”; the “Total SFCs” value was 1245 SFCs; the “Cumulative Response” value is 66.6%; the IFNγ was 0 SFC. The IL-5 was 1172 SFC and 73 SFC; the “Donors Responding” value is given as 2; the “% Total Response” value is recorded as 5.1%.

Take “PLYKLVHVFINTQYA (listed as Blattella germanica) [Region 6, Bla g 2 position 26]”: the “Total SFCs” value is 240 SFCs, the “Cumulative Response” value turned out to be 97.8%, the IFNγ amounted to 240 SFC and the IL-5 came to 0 SFC. Moreover, the “Donors Responding” value came out at 1 and the “% Total Response” value turned out to be 1.0%.

In the case of “EVVKANGGYLAAGKL (listed as Blattella germanica)”, the IFNγ was 80 SFC and 380 SFC; the IL-5 is 467 SFC and 0 SFC.

The sequence “EEFVSLASRFLVEED (listed as Blattella germanica)” returned an IFNγ of 220 SFC and an IL-5 of 0 SFC.

On to “GEPIRFLLSYGEKDF (listed as Blattella germanica)”, for which the IFNγ is recorded as 205 SFC and the IL-5 is recorded as 0 SFC.

For the sequence “MVGTILEMLGHRLDD (listed as Blattella germanica) [Region 24, Bla g 6 position 31]”, the “POST-SIT IFNg” value is recorded as 0 SFC/10^6, the “POST-SIT IL-5” value was determined as 0 SFC/10^6, the “POST-SIT IL-10” value is 0 SFC/10^6 and the “Total SFCs” value is 317 SFCs. The “PRE-SIT IL-5” value was 50 SFC/10^6, the “PRE-SIT IL-10” value is 0 SFC/10^6, the “PRE-SIT IFNg” value turned out to be 0 SFC/10^6 and the “Cumulative Response” value is 95.8%. In addition, the IFNγ was 0 SFC, the IL-5 amounted to 50 SFC, the “Donors Responding” value worked out at 2 and the “% Total Response” value is listed as 1.3%.

As for “HMAKEDLVANQPNLK (listed as Blattella germanica)”, the IFNγ amounted to 610 SFC and the IL-5 is recorded as 273 SFC.

On to “VLGLPAIKAWVAKRP (listed as Blattella germanica)”, for which the IFNγ was 50 SFC and 73 SFC; the IL-5 was 0 SFC and 133 SFC.

For “EFVTLAAKFIIEEDS (listed as Blattella germanica) [Region 19, Bla g 6 position 71]”, the “Total SFCs” value was found to be 443 SFCs, the “Cumulative Response” value came to 91.8%, the IFNγ was 0 SFC and the IL-5 was 443 SFC. The “Donors Responding” value was 1 and the “% Total Response” value was determined as 1.8%.

Take “PEFQSIVQTLNAMPEYQNLL (listed as Blattella germanica) [Region 3, Bla g 1 position 40]”: the “POST-SIT IFNg” value is on record as 0 SFC/10^6, the “POST-SIT IL-5” value was 0 SFC/10^6, the “POST-SIT IL-10” value amounted to 0 SFC/10^6 and the “Total SFCs” value is on record as 327 SFCs. The “PRE-SIT IL-5” value was determined as 87 SFC/10^6, the “PRE-SIT IL-10” value is reported as 0 SFC/10^6, the “PRE-SIT IFNg” value is 153 SFC/10^6 and the “Cumulative Response” value is on record as 93.2%. Also, the “Donors Responding” value came out at 2 and the “% Total Response” value is recorded as 1.3%.

On to “IVQTLNAMPEYQNLL (listed as Blattella germanica)”, for which the IFNγ is recorded as 153 SFC and the IL-5 stood at 87 SFC.

For the sequence “LRKAFDAFDREKSGS (listed as Blattella germanica)”, the IFNγ is 90 SFC and the IL-5 was determined as 327 SFC.

In the case of “PELQNFLNFLEANGL (listed as Blattella germanica) [Region 4, Bla g 1 position 281]”, the “Total SFCs” value came out at 323 SFCs, the “Cumulative Response” value is given as 94.5%, the IFNγ is given as 323 SFC and the IL-5 is reported as 0 SFC. Besides, the “Donors Responding” value is on record as 1 and the “% Total Response” value is on record as 1.3%.

As for “EAMEKELREAFRLYD (listed as Blattella germanica) [Region 21, Bla g 6 position 86]”, the “Total SFCs” value amounted to 53 SFCs, the “Cumulative Response” value came to 99.8%, the IFNγ is given as 0 SFC and the IL-5 came to 53 SFC. For the same sequence, the “Donors Responding” value was 1 and the “% Total Response” value was determined as 0.2%.

For the sequence “FAVATITHAAELQRV (listed as Blattella germanica) [Region 5, Bla g 2 position 11]”, the “T cell response pattern (IL-5 / IFN-γ), in words” value was “only associated with IFN-γ production”; the “Total SFCs” value turned out to be 855 SFCs; the “Cumulative Response” value is 86.9%; the IFNγ is recorded as 855 SFC. For the same sequence, the IL-5 came to 0 SFC, the “Donors Responding” value came out at 1 and the “% Total Response” value was found to be 3.5%.
